Experimental data reported in patent US20090053168A1, “TREATMENTS OF B-CELL PROLIFERATIVE DISORDERS” (priority 2007, published 2009).
Structures can show the parent of a compound that is named as a salt. Where two headings read alike, the source gives them in different places.

How the values were obtained:
RPMI-8226 cells = assay: Anti-proliferation assay (ATPLite, 72 h), RPMI-8226; assay type: cell-based; conditions: for synergy score: RPMI-8226
MM.1R cells = assay: Anti-proliferation assay (ATPLite, 72 h), MM.1R; assay type: cell-based
H929 cells = assay: Anti-proliferation assay (ATPLite, 72 h), H929; assay type: cell-based; conditions: for synergy score: H929; for Synergy score with dexamethasone, H929: combination with dexamethasone, Loewe-based Synergy Score, 72 h
MM.1S cells [1] = assay: Anti-proliferation assay (ATPLite, 72 h), MM.1S; conditions: for synergy score: MM.1S; for Synergy score with dexamethasone, MM.1S: combination with dexamethasone, Loewe-based Synergy Score
[2] = test system: chronic lymphocytic leukemia (CLL) cells; assay: Apoptosis assay (Hoechst 33342 flow cytometry, 48 h) on patient CLL cells; assay type: cell-based, human; conditions: for Induction of CLL cell apoptosis: Patient #1
From the text: Patients with active infections or other serious medical conditions were not included in this study. Patients with white blood cell counts of less than 15,000/μl by automated analysis were excluded from this study. Whole blood was layered on Ficoll-Hystopaque (Sigma), and peripheral blood mononuclear cells (PBMC) isolated after centrification. […] One million cells were stained with anti-CD5-PE and anti-CD19-PE-Cy5 (Becton […].). The percentage of B-CLL cells was defined as the percentage of cells doubly expressing CD5 and CD19, as determined by flow cytometry. […] Compound master plates were diluted 1:50 into complete media to create working compound dilutions. Compound crosses were then created by diluting two working dilution plates 1:10 into each plate of cells. […] Hoechst 33342 (Molecular Probes, Eugene Oreg.) at a final concentration of 0.25 μg/mL was added to each well and the cells incubated at 37° C. for an additional ten minutes before being placed on ice until analysis. Plates were then analyzed on a LSR-II flow cytometer (Becton Dickenson, Franklin Lakes, N.J.) equipped with the High Throughput Sampling (HTS) option in high throughput mode. […] The apoptotic fraction was calculated using FlowJo software (Tree Star Inc., Ashland, Oreg.) after excluding debris by a FSC/SSC gate and subsequently gating for cells that accumulate the Hoechst dye.

MM.1S cells [3] = conditions: MM.1S
[4] = in combination with HE-NECA, MM.1R
[5] = in combination with ADAC, MM.1R
[6] = combination with dexamethasone, Loewe-based Synergy Score, 72 h
[7] = Homo sapiens, MM1.S, read-out: percent inhibition of cell proliferation
[8] = Homo sapiens, MM1.S, 72 h, read-out: percent inhibition of cell proliferation

For CCCCCC[C@@H]([C@@H](C)O)n1cnc2c(N)ncnc21 (racemic) [EHNA, erythro-9-(2-hydroxy-3-nonyl)adenine], the “Synergy score with dexamethasone, RPMI-8226” value (shortened to “Synergy score … RPMI-8226”) (RPMI-8226 cells) was 1.14.

With CCCCc1oc2ccccc2c1C(=O)c1cc(I)c(OCCN(CC)CC)c(I)c1 [Amiodarone] the “synergy score” value (MM.1R cells; [4]) was 0.67.

With Cn1cnc([N+](=O)[O-])c1Sc1ncnc2nc[nH]c12 [Azathioprine] the synergy score (RPMI-8226 cells; in combination with ADAC) was 1.63, the synergy score (H929 cells; in combination with ADAC) was 1.22 and the synergy score (MM.1R cells; [5]) was 1.26. For the same compound, the synergy score (MM.1S cells [1]; in combination with ADAC) was 1.43.

For COc1ccc(Cc2nn3c([C@@H](CCCc4ccccc4)[C@@H](C)O)nc(C)c3c(=O)[nH]2)cc1OC [BAY 60-7550, 2-(3,4-dimethoxybenzyl)-7-[(1R)-1-[(1R)-1-hydroxyethyl]-4-phenylbutyl]-5-methylimidazo[5,1-f][1,2,4]triazin-4(3H)-one], the “Synergy score … RPMI-8226” value (RPMI-8226 cells; [6]) was 1.37, the “Synergy score with dexamethasone, H929” value (H929 cells) was 0.822 and the inhibition at 0.437 µM (MM.1S cells [1]; [7]) was 2.2%. It also gave an inhibition at 1.31 µM (MM.1S cells [1]; [7]) of 1.7%, an inhibition at 3.93 µM (MM.1S cells [1]; [7]) of 3% and an inhibition at 35.4 µM (MM.1S cells [1]; [7]) of 44%. The “Synergy score with dexamethasone, MM.1S” value (MM.1S cells [1]; 72 h) was 1.44.

Work on CCCCOc1ccc(CC(=O)NO)cc1 [Bufexamac] yielded a synergy score (RPMI-8226 cells; in combination with ADAC) of 1.399, a synergy score (RPMI-8226 cells; in combination with HE-NECA) of 0.3833 and a synergy score (H929 cells; in combination with ADAC) of 1.12. For the same compound, the synergy score (H929 cells; in combination with HE-NECA) was 3.17, the synergy score (MM.1R cells; [5]) was 1.532 and the synergy score (MM.1R cells; [4]) was 3.173. The synergy score (MM.1S cells [1]; in combination with ADAC) was 1.479 and the synergy score (MM.1S cells [1]; in combination with HE-NECA) was 3.476.

With OC[C@H]1O[C@@H](n2cnc3c(NC4CCCC4)nc(Cl)nc32)[C@H](O)[C@@H]1O [CCPA, 2-chloro-N^6-cyclopentyladenosine] the “Synergy score … RPMI-8226” value (RPMI-8226 cells; [6]) was 5.04, the inhibition at 0.0625 µM (MM.1S cells [1]; [8]) was 2.4% and the inhibition at 0.187 µM (MM.1S cells [1]; [8]) was 21%. The inhibition at 0.562 µM (MM.1S cells [1]; [8]) was 15%, the inhibition at 1.69 µM (MM.1S cells [1]; [8]) was 38% and the inhibition at 5.06 µM (MM.1S cells [1]; [8]) was 50%. The “activity and synergy in antiproliferation assays” value (MM.1S cells [1]; RPMI-8226, H929, MM.1S and MM.1R MM cell lines) was “active and synergistic” and the “Synergy score with dexamethasone, MM.1S” value (MM.1S cells [1]; 72 h) was 5.15.

In the case of CCNC(=O)[C@H]1O[C@@H](n2cnc3c(N)nc(NCCc4ccc(CCC(=O)O)cc4)nc32)[C@H](O)[C@@H]1O [CGS-21680, 2-(4-(2-carboxyethyl)phenethylamino)-5′-N-ethylcarboxamidoadenosine], the “Synergy score … RPMI-8226” value (RPMI-8226 cells; [6]) is reported as 2.54, the “Induction of CLL cell apoptosis” value ([2]; CGS-21680 0.05 μM alone) is reported as 12% and the “Induction of CLL cell apoptosis” value ([2]; CGS-21680 0.15 μM alone) is reported as 14%. For the same compound, the “Induction of CLL cell apoptosis” value ([2]; CGS-21680 0.45 μM alone) was 16%, the “apoptosis, CLL cells patient 1” value ([2]; patient 1, 48 hours) was 14% and the “apoptosis, CLL cells patient #2” value ([2]; patient #2, 48 hours) was 9%. For the same compound, the “Synergy score with dexamethasone, MM.1S” value (MM.1S cells [1]; 72 h) was 4.73.

In the case of CN(C(=O)CCCOc1ccc2[nH]c(=O)ccc2c1)C1CCCCC1 [Cilostamide, N-cyclohexyl-4-((1,2-dihydro-2-oxo-6-quinolinyl)oxy)-N-methyl-butanamide], the “Synergy score … RPMI-8226” value (RPMI-8226 cells; [6]) is reported as 1.42, the “Synergy score with dexamethasone, H929” value (H929 cells) is reported as 0.982 and the inhibition at 0.368 µM (MM.1S cells [1]; [7]) is reported as 0.46%. For the same compound, the inhibition at 1.1 µM (MM.1S cells [1]; [7]) was 2.4%, the inhibition at 3.31 µM (MM.1S cells [1]; [7]) was -2% and the inhibition at 9.93 µM (MM.1S cells [1]; [7]) was 4.2%. The inhibition at 29.8 µM (MM.1S cells [1]; [7]) was 33% and the “Synergy score with dexamethasone, MM.1S” value (MM.1S cells [1]; 72 h) was 1.34.

With CN1C[C@H](C(=O)N[C@]2(C)O[C@@]3(O)[C@@H]4CCCN4C(=O)[C@H](Cc4ccccc4)N3C2=O)C[C@@H]2c3cccc4[nH]cc(c34)C[C@H]21 [Dihydroergotamine] the “synergy score” value (MM.1R cells; [4]) was 2.56.

Compound C[C@H]1c2cccc(O)c2C(=O)C2=C(O)[C@]3(O)C(=O)C(C(N)=O)=C(O)[C@@H](N(C)C)[C@@H]3[C@@H](O)[C@@H]21 [Doxycycline] has a synergy score (RPMI-8226 cells; in combination with ADAC) of 1.17, a synergy score (H929 cells; in combination with ADAC) of 2.35 and a synergy score (MM.1R cells; [5]) of 0.78. For the same compound, the synergy score (MM.1S cells [1]; in combination with ADAC) was 2.22.

COc1cccc2c1C(=O)c1c(O)c3c(c(O)c1C2=O)C[C@@](O)(C(=O)CO)C[C@@H]3O[C@H]1C[C@H](N)[C@@H](O)[C@H](C)O1 [Epirubicin] showed a synergy score (RPMI-8226 cells; in combination with ADAC) of 1.14, a synergy score (H929 cells; in combination with ADAC) of 0.33 and a synergy score (MM.1R cells; [5]) of 1.42.

Nc1ccn([C@@H]2O[C@H](CO)[C@@H](O)C2(F)F)c(=O)n1 [Gemcitibine] was tested, and the synergy score (RPMI-8226 cells; in combination with ADAC) was 0.3, the synergy score (H929 cells; in combination with ADAC) was 0.07 and the synergy score (MM.1R cells; [5]) was 1.2. The synergy score (MM.1S cells [1]; in combination with ADAC) was 1.42.

In the case of C#C[C@]1(O)CC[C@H]2[C@@H]3CCC4=CC(=O)CCC4=C3C=C[C@@]21CC [Gestrinone], the “synergy score” value (MM.1R cells) is reported as 1.19.

CCc1c2c(nc3ccc(OC(=O)N4CCC(N5CCCCC5)CC4)cc13)-c1cc3c(c(=O)n1C2)COC(=O)[C@]3(O)CC [Irinotecan hydrochloride] was tested, and the synergy score (RPMI-8226 cells; in combination with ADAC) was 1.414, the synergy score (RPMI-8226 cells; in combination with HE-NECA) was 1.227 and the synergy score (H929 cells; in combination with ADAC) was 1.877. For the same compound, the synergy score (H929 cells; in combination with HE-NECA) was 0.6736, the synergy score (MM.1R cells; [5]) was 3.13 and the synergy score (MM.1R cells; [4]) was 0.6972. The synergy score (MM.1S cells [1]; in combination with ADAC) was 2.576 and the synergy score (MM.1S cells [1]; in combination with HE-NECA) was 0.6406.

With O=c1cc(N2CCOCC2)oc2c(-c3ccccc3)cccc12 [LY 294002] the “synergy score” value (MM.1R cells; [4]) was 0.83.

With C[C@@H]1C[C@H]2O[C@@H]2/C=C\C=C\C(=O)Cc2c(Cl)c(O)cc(O)c2C(=O)O1 [Monordon] the “synergy score” value (MM.1R cells) was 1.7.

COc1ccc(Cc2nccc3cc(OC)c(OC)cc23)cc1OC [Papaverine, 1-[(3.4-dimethoxyphenyl)-methyl]-6,7-dimethoxyisoquinolone] was tested, and the “Synergy score … RPMI-8226” value (RPMI-8226 cells; [6]) was 3.49, the “Synergy score with dexamethasone, H929” value (H929 cells) was 3.05 and the “Synergy score with dexamethasone, MM.1S” value (MM.1S cells [1]; 72 h) was 2.99.

For O=C1C=C2C(=CCOC2O)O1 (centres unmarked) [Patulin], the “synergy score” value (MM.1R cells; [4]) was 1.73.

With COc1ccc(C2CNC(=O)C2)cc1OC1CCCC1 (centres unmarked) [Rolipram, 4-(3-cyclopentyloxy-4-methoxyphenyl)-2-pyrrolidone] the “Synergy score … RPMI-8226” value (RPMI-8226 cells; [6]) was 1.43, the “Synergy score with dexamethasone, H929” value (H929 cells) was 0.0927 and the “Synergy score with dexamethasone, MM.1S” value (MM.1S cells [1]; 72 h) was 0.203.

In the case of Nc1nc2c(cnn2CCc2ccccc2)c2nc(-c3ccco3)nn12 [SCH 58261], the “blocking of chloro-IB-MECA antiproliferative activity” value (MM.1S cells [3]; SCH 58261 78 nM, 72 hours, 2-fold dilutions of chloro-IB-MECA) is reported as greater than 50% and the “blocking of chloro-IB-MECA antiproliferative activity” value (MM.1S cells [3]; antagonist concentration increased 2-fold) is reported as greater than 70%.

With CC(=O)S[C@@H]1CC2=CC(=O)CC[C@]2(C)[C@H]2CC[C@@]3(C)[C@@H](CC[C@@]34CCC(=O)O4)[C@H]12 [Spironolactone] the synergy score (RPMI-8226 cells; in combination with ADAC) was 0.8213, the synergy score (RPMI-8226 cells; in combination with HE-NECA) was 0.6876 and the synergy score (H929 cells; in combination with ADAC) was 0.6779. For the same compound, the synergy score (H929 cells; in combination with HE-NECA) was 1.831, the synergy score (MM.1R cells; [5]) was 2.029 and the synergy score (MM.1R cells; [4]) was 1.151. The synergy score (MM.1S cells [1]; in combination with ADAC) was 1.444 and the synergy score (MM.1S cells [1]; in combination with HE-NECA) was 1.835.

In the case of O=c1[nH]c(=O)n([C@H]2C[C@H](O)[C@@H](CO)O2)cc1C(F)(F)F [Trifluridine], the “synergy score” value (MM.1R cells; [4]) is reported as 1.94.

CC(C)[C@]12O[C@H]1[C@@H]1O[C@]13[C@]1(O[C@H]1C[C@H]1C4=C(CC[C@@]13C)C(=O)OC4)[C@@H]2O [Triptolide] was tested, and the “synergy score” value (MM.1R cells; [4]) was 2.12.
